In PMC9218685, “Legume Plant Peptides as Sources of Novel Antimicrobial Molecules Against Human Pathogens” (Frontiers in Molecular Biosciences, 2022):
In brackets after ≈: the same amount, converted by molar mass. Peptide text beside a SMILES is read from it.

Tested on: Acinetobacter baumannii (ATCC 17978)
Experiment: microbe, parasite or virus in culture
Assay type: cell-based
Conditions: for Activity against A. baumannii: 3 h, peptides ≤25 µM; for MBC Acinetobacter baumannii: ATCC 17978, 3 h
From the text: The following pathogenic bacterial strains were used: The Gram-positive Enterococcus faecalis (ATCC 29212), Staphylococcus aureus (HNCMO112011), Listeria monocytogenes (ATCC 19111) and the Gram-negative Pseudomonas aeruginosa (ATCC 27853), Escherichia coli (ATCC 8739), Salmonella enterica (ATCC 13076), Klebsiella pneumoniae (NCTC 13440), Acinetobacter baumannii (ATCC 17978) obtained from the ATCC (United States) and NCTC (National Collection of Type Cultures–England). For the antifungal experiment the Candida albicans W01 strain ([Ördögh et al., 2014]) was used. Antimicrobial activities of peptides against ∼10^7 log phase bacteria were tested in Potassium-Phosphate Buffer (PPB, pH 7.4) as described by [Jenei et al. (2020)] while anti-Candida assays were done according to [Szerencsés et al. (2021)]. The two-fold dilution series of peptides ranged from 25 μM to 0.125 μM, while that of the antibiotics ampicillin (Merck) and miconazole (Duchefa Biochemie) from […] to 0.1 μM. The lowest concentration of the antimicrobial agents, which completely eliminated viable bacteria or C. albicans were considered as the minimal bactericidal concentration (MBC) and minimal fungicidal concentration (MFC).
The minimal bactericidal concentrations (MBCs) were determined after 3 h of treatment of ∼10^7 log phase bacteria with 2-fold serial dilution of peptides from 25 µM to 0.8 µM. Only 25 of the 50 cationic M. truncatula peptides had activity at ≤25 µM (Supplementary Table S1). […] Three peptides were only active against two bacterial strains; NCR649 against L. monocytogenes and A. baumannii, NCR281 against L. monocytogenes and P. aeruginosa and NCR350 against A. baumannii and P. aeruginosa. […] None of the anionic NCR peptides affected the survival of the tested bacterial strains.

Structure (SMILES)	MBC (Acinetobacter baumannii, ATCC17978, ~10^7 log phase bacteria, Potassium-Phosphate Buffer pH 7.4, 3 h treatment, two-fold dilution series, lowest concentration completely eliminating viable bacteria, read-out: MBC, minimal bactericidal concentration against A. baumannii) [µM]	Activity against A. baumannii (~10^7 log phase bacteria)	MBC Acinetobacter baumannii [µM]
CC1(C)S[C@@H]2[C@H](NC(=O)[C@H](N)c3ccccc3)C(=O)N2[C@H]1C(=O)O [Ampicillin, reference compound]	10200 (≈ 3580 µg/mL)	–	–
CC[C@H](C)[C@H](NC(=O)[C@H](Cc1ccc(O)cc1)NC(=O)[C@H](CC(N)=O)NC(=O)[C@H](CCCNC(=N)N)NC(=O)[C@@H](NC(=O)[C@H](CCC(N)=O)NC(=O)[C@H](CCCNC(=N)N)NC(=O)[C@H](CS)NC(=O)[C@H](CC(=O)O)NC(=O)[C@H](CCCCN)NC(=O)[C@H](CC(N)=O)NC(=O)[C@@H](NC(=O)[C@@H](NC(=O)[C@H](CS)NC(=O)[C@H](CC(N)=O)NC(=O)[C@H](CCCNC(=N)N)NC(=O)[C@H](CO)NC(=O)[C@@H](NC(=O)[C@@H]1CCCN1C(=O)[C@H](CC(C)C)NC(=O)[C@@H](N)Cc1ccccc1)[C@@H](C)O)[C@@H](C)CC)[C@@H](C)O)C(C)C)C(=O)N[C@@H](C)C(=O)N[C@@H](CCCNC(=N)N)C(=O)N[C@@H](CS)C(=O)N[C@@H](CCCNC(=N)N)C(=O)N[C@@H](CCCCN)C(=O)NCC(=O)N[C@@H](CCC(N)=O)C(=O)N[C@@H](CS)C(=O)N[C@@H](CC(C)C)C(=O)N[C@@H](CCC(N)=O)C(=O)N[C@@H](CO)C(=O)N1CCC[C@H]1C(=O)N[C@H](C(=O)N[C@@H](CCCNC(=N)N)C(=O)O)C(C)C [NCR030] (H-FLPTSRNCITNKDCRQVRNYIARCRKGQCLQSPVR-OH; N-terminus assumed)	–	only against A. baumannii	3.125 (≈ 12.9 µg/mL)
CC[C@H](C)[C@H](NC(=O)[C@H](Cc1ccccc1)NC(=O)[C@@H](NC(=O)[C@H](CCCCN)NC(=O)[C@H](CC(=O)O)NC(=O)[C@@H]1CCCN1C(=O)[C@@H](N)Cc1ccccc1)[C@@H](C)CC)C(=O)NCC(=O)N[C@@H](CC(=O)O)C(=O)N[C@@H](CS)C(=O)N[C@@H](CCCCN)C(=O)N[C@H](C(=O)N[C@@H](CC(=O)O)C(=O)N[C@@H](CCCCN)C(=O)N[C@@H](CC(=O)O)C(=O)N[C@@H](CS)C(=O)N[C@@H](CCCCN)C(=O)N1CCC[C@H]1C(=O)N[C@@H](CCCCN)C(=O)N[C@@H](CCCNC(=N)N)C(=O)NCC(=O)N[C@H](C(=O)N[C@@H](CC(N)=O)C(=O)N[C@@H](Cc1ccccc1)C(=O)N[C@@H](CCCNC(=N)N)C(=O)N[C@@H](CS)C(=O)N[C@@H](CCCNC(=N)N)C(=O)N[C@@H](CCCCN)C(=O)NCC(=O)N[C@@H](CCCCN)C(=O)N[C@@H](CS)C(=O)N[C@@H](Cc1ccc(O)cc1)C(=O)N1CCC[C@H]1C(=O)N[C@@H](CCCNC(=N)N)C(=O)O)C(C)C)[C@@H](C)O [NCR032] (H-FPDKIFIGDCKTDKDCKPKRGVNFRCRKGKCYPR-OH; N-terminus assumed)	–	only against A. baumannii	3.125 (≈ 12.6 µg/mL)
CC[C@H](C)[C@H](NC(=O)[C@H](CC(N)=O)NC(=O)[C@H](Cc1c[nH]cn1)NC(=O)[C@@H]1CCCN1C(=O)[C@@H]1CCCN1C(=O)[C@H](CCSC)NC(=O)[C@H](CCCNC(=N)N)NC(=O)[C@@H]1CCCN1C(=O)[C@H](CS)NC(=O)[C@H](CC(=O)O)NC(=O)[C@H](CCCCN)NC(=O)[C@H](CC(=O)O)NC(=O)[C@@H](NC(=O)[C@H](CC(C)C)NC(=O)[C@H](CS)NC(=O)[C@@H]1CCCN1C(=O)[C@H](CCCNC(=N)N)NC(=O)[C@H](CC(C)C)NC(=O)[C@@H](NC(=O)[C@H](CCSC)NC(=O)CNC(=O)[C@@H](N)Cc1ccccc1)[C@@H](C)O)[C@@H](C)O)C(=O)N[C@@H](CCCCN)C(=O)N[C@@H](CS)C(=O)N[C@@H](CCCNC(=N)N)C(=O)N[C@@H](CCCCN)C(=O)NCC(=O)N[C@@H](Cc1c[nH]cn1)C(=O)N[C@@H](CS)C(=O)N[C@H](C(=O)N1CCC[C@H]1C(=O)N[C@H](C(=O)NCC(=O)N[C@@H](CCCCN)C(=O)N1CCC[C@H]1C(=O)N[C@@H](Cc1ccccc1)C(=O)N[C@@H](CCCCN)C(=O)O)[C@@H](C)CC)C(C)C [NCR137] (H-FGMTLRPCLTDKDCPRMPPHNIKCRKGHCVPIGKPFK-OH; N-terminus assumed)	–	–	25 (≈ 106 µg/mL)
